Results as given in PubChem BioAssay AID1996.
Values after ≈ are worked out from the molar mass of the structure shown.

Settings: buffer; pH 7.4; 200.0 µM

Row | SMILES | solubility kinetic [µg/mL]
1 | COc1ccc(CC(C)Nc2cccc(F)c2)cc1 (centres undefined) | 1 (≈ 3.86 µM)
2 | CC(NC(=O)COC(=O)c1cccc(S(=O)(=O)N2CCCC2)c1)c1ccccc1 (centres undefined) | 11.8 (≈ 28.3 µM)
3 | O=S(=O)(NCCN1CCCC1)c1ccc(C(F)(F)F)cc1 | > 48.4
4 | Cc1cc(C)c(/C=C(\C#N)S(=O)(=O)c2ccccc2)[nH]1 | 0.5 (≈ 1.75 µM)
5 | O=C(Nc1cccc(Cl)c1)NC1CCS(=O)(=O)C1 (centres undefined) | 36.4 (≈ 126 µM)
6 | COC(=O)C(NC(=O)c1ccccc1C(=O)O)c1ccc2ccccc2c1 (centres undefined) | > 54.5
7 | Cc1cc(C)cc(NC(=O)c2ccc3c(c2)CCN3S(C)(=O)=O)c1 | 0.5 (≈ 1.45 µM)
8 | O=S(=O)(c1ccc(F)cc1)N1CCCCC1c1cccnc1 (centres undefined) | > 48.1
9 | COc1ccc(C/C(N)=N/OC(=O)CCc2ccccc2)cc1 | 7.7 (≈ 24.7 µM)
10 | Cc1cc(NC(=O)c2ccc3c(c2)C(=O)N(CC(C)C)C3=O)no1 | 2.1 (≈ 6.42 µM)
11 | Cc1ccc(C(=O)OCC(=O)N2c3ccccc3NC(=O)C2(C)C)cc1S(=O)(=O)N1CCCCC1 | 3.6 (≈ 7.21 µM)
12 | O=C(c1ccccc1)c1nc2c(n1O)CCCCC2 | > 38.4
13 | O=C(COC(=O)Cn1ccc(=O)[nH]c1=O)Nc1ccc(F)cc1 | > 48.2
14 | COc1ccc(/C=C/C(=O)OCC(=O)NCCc2ccccc2)c(OC)c1 | 8.5 (≈ 23 µM)
15 | Cc1cc(NC(=O)c2cc3cccc([N+](=O)[O-])c3[nH]2)ccc1F | 0.7 (≈ 2.23 µM)
16 | Cc1ccc(CSCC(=O)NCCc2ccccc2)cc1 | 40.9 (≈ 137 µM)
17 | Cc1cccc(SCC(=O)Nc2ccccc2[N+](=O)[O-])c1 | 3.7 (≈ 12.2 µM)
18 | COc1ccc2[nH]c(-c3ccccc3)cc2c1 | < 0.5
19 | Cc1ccccc1NC(=O)Cn1c(=O)oc2ccccc21 | 14.4 (≈ 51 µM)
20 | Cc1ccc(OCCNS(=O)(=O)c2ccc(Cl)cc2)cc1 | 5.6 (≈ 17.2 µM)

Row | SMILES | solubility kinetic [µg/mL]
21 | FC(F)(F)C1=Nc2cccc3cccc(c23)N1 | 13.5 (≈ 57.2 µM)
22 | CCN=C1S/C(=C\c2cc(Br)c(O)c(OC)c2)C(=O)N1CC | 1.3 (≈ 3.37 µM)
23 | [Br-].c1ccc(-c2c[n+]3c(n2-c2ccccc2)CCC3)cc1 | > 51.2
24 | O=C(Nc1ccc2c(c1)OCCO2)c1cccnc1Oc1ccccc1 | 4 (≈ 11.5 µM)
25 | CC[N+](C)(C)Cc1ccccc1Br.Cc1ccc(S(=O)(=O)[O-])cc1 | > 62.2
26 | Cc1c(Cl)cccc1NC(=S)NC1CCN(C(C)C)CC1 | > 48.9
27 | O=C(Nc1ncccn1)c1cccc(Cl)c1 | 23.6 (≈ 101 µM)
28 | COc1cccc(CN(C)CC2CCCN(CCc3ccc(Cl)cc3)C2)c1OC (centres undefined) | 53.3 (≈ 128 µM)
29 | O=C(CCS(=O)(=O)c1ccccc1)N1CCOCC1 | > 42.5
30 | Cc1cc(C)cc(NC(=O)CN2CCC(C(=O)c3ccccc3)CC2)c1 | 16.5 (≈ 47.1 µM)
31 | Cc1ccc(Cn2c(N3CCN(C)CC3)nc3c2c(=O)[nH]c(=O)n3C)cc1 | > 55.3
32 | Cc1ccc2[nH]c(C(=O)N3CCC(C(N)=O)CC3)cc2c1 | > 42.8
33 | CCOC(=O)Nc1ccc(C(=O)c2ccncc2)cc1 | 4 (≈ 14.8 µM)
34 | CCNC(=O)Nc1ccc(S(=O)(=O)Nc2cnc(C)nc2C)cc1 | > 52.4
35 | CCCCCc1cc(O)c2c3c(c(=O)oc2c1)CN(C)CC3 | < 0.6
36 | CC(CCc1ccccc1)NC(=O)CN1CCc2ccccc2C1 (centres undefined) | 47.3 (≈ 147 µM)
37 | CCOC(=O)C1CCN(CCC(=O)Nc2ccc(C)c(C)c2)CC1 | > 49.9
38 | CN(C)S(=O)(=O)c1ccc(C(=O)OCC(=O)N2CC3(C)CC2CC(C)(C)C3)cc1 (centres undefined) | > 63.4
39 | CC(C)(C)c1ccc(/C=C2/SC(N3CCCC3)=NC2=O)cc1 | 15.4 (≈ 49 µM)
40 | CC(OC(=O)c1ccc2ncsc2c1)C(=O)N1CCCC1 (centres undefined) | 39.4 (≈ 129 µM)

Row | SMILES | solubility kinetic [µg/mL]
41 | Cc1cccc(Nc2nc(C)cc(C)c2C#N)c1 | 0.8 (≈ 3.37 µM)
42 | Cc1ccc2nc(NC(=O)c3ccccc3F)sc2c1 | < 0.3
43 | Cc1c(Cl)cccc1NC(=O)CCCN1C(=O)c2cccnc2C1=O | 39.5 (≈ 110 µM)
44 | Cc1nc(N2CCNCC2)c2c3c(sc2n1)CCCC3 | 26.7 (≈ 92.6 µM)
45 | CCOc1ccc(NC(=O)C2C(c3ccccc3)C2(Cl)Cl)cc1 (centres undefined) | < 0.8
46 | CCNC(=O)C(C)NC(=O)C1=NN(c2ccccc2)C(=O)CC1 (centres undefined) | > 47.5
47 | Cc1cccnc1NC(=S)NCc1ccco1 | 31.4 (≈ 127 µM)
48 | Cc1cc(N2CCCC2)ccc1NC(=O)COc1ccc(Cl)cc1 | 4.4 (≈ 12.8 µM)
49 | COc1ccc2cc(C(=O)N3CCN(c4ccc(F)cc4)CC3)[nH]c2c1 | 1.6 (≈ 4.53 µM)
50 | CN(C)C(=O)c1cc(C(=O)c2ccc(F)cc2F)c[nH]1 | > 41.7
51 | CC(C)c1ccccc1NC(=O)C1CC(=O)N(C2CCCC2)C1 (centres undefined) | > 47.2
52 | CC(C)CN1CCN(Cc2cccc3cccnc23)CC1CCO (centres undefined) | 37.1 (≈ 113 µM)
53 | O=C(C1CC2C=CC1C2)N1CCN(c2ccccc2)CC1 (centres undefined) | > 42.4
54 | O=C1NC(c2cccc(Cl)c2)Oc2ccccc21 (centres undefined) | 1.2 (≈ 4.62 µM)
55 | Cc1ccoc1C(=O)N1CCN(C(=O)c2occc2C)CC1 | > 45.3
56 | Cc1cc(O)cc(=O)n1C | > 20.9
57 | Cn1nc(C(C)(C)C)c([N+](=O)[O-])c1C(=O)N1CCOCC1 | > 44.4
58 | N#Cc1cccc(NC(=O)CN2CCCCCC2)c1 | > 38.6
59 | O=C(O)c1cccc(S(=O)(=O)Nc2ccc(N3CCCCC3)cc2)c1 | > 54.1
